Laboratory results as given in patent US7160914B2, “Compounds that exhibit specific molecular recognition of mixed nucleic acid sequences and bind in the DNA minor groove as a dimer” (The University of North Carolina at Chapel Hill, priority 1999, dated 2007).

Tests used:
[1] = test system: hairpin duplex oligo2-1; assay: Thermal melting (Tm) of hairpin oligo2-1; assay type: binding; conditions: 1:1 and 2:1 ratios, single transitions
[2] = test system: oligo2-1 hairpin duplex
Method: (§1) To pursue the comparative quantitative analysis of these compounds with DNA in more detail by using surface plasmon resonance, 5′-biotin labeled analogs of oligo2-1 and 2-2 were immobilized on a BIAcore four-channel streptavidine-coated sensor chip as follows: Immobilization of DNA and surface plasmon resonance (SPR) binding studies: 5′-biotin labeled hairpins were purchased with HPLC purification (Midland Co). […] Steady state analysis was performed with multiple injections f different concentrations of each compound over the SA surface at a flow rate of 20 μl/min, at 25° C.
(§2) Oligo1 was immobilized as a control sequence and one flow cell was left as an unmodified reference. […] The free compound is fixed by the concentration in the flow solution.

[3] = test system: 265 bp EcoRI-PvuII restriction fragment from plasmid pBS; assay: Quantitative DNase I footprinting; assay type: binding; conditions: for footprint in the 90–100 base region (GC-rich): 265 mer pBS fragment, DNase I; for binding to sites containing GC base pairs, such as ATGA, ACGA, and ATGT: several restriction fragments
Method: In order to characterize the DNA recognition properties of a series of analogs of furamidine (shown in FIG. 1), quantitative DNAaseI footprinting studies were conducted using of a number of derivatives with several different DNA sequences. Plasmid DNA restriction fragments were prepared and DNaseI footprinting experiments were conducted as described in C. Bailly, et al., Biochemistry 35, 1150 (1996) and C. Bailly et al., Anti Cancer Drug Design (in press, 1999).
FIG. 2. illustrates the results of a quantitative DNase I footprinting titration experiment with the compound DB293 on a 265 bp DNA fragment as described herein. The EcoRI-PvuII restriction fragment from plasmid pBS was 3′-end labeled at the EcoRI site with [α-^32P]dATP in the presence of AMV reverse transcriptase. […] Drug concentrations are (lanes 1–11) 0, 0.3, 0.6, 0.9, 1.2, 1.5, 1.8, 2.1, 2.4, 2.7, 3.0 μM for DB 293 and (lanes 12–15) 0, 1, 2 and 5 μM for DB270. Tracks labeled ‘G’ represent dimethylsulphate-piperidine markers specific for guanines. The track labeled DNA contained no drug and no enzyme. Numbers at the right side of the gel refer to the numbering scheme of the fragment. The rectangles on the left side refer to the positions of (open box) an AT-rich and (filled box) a GC-rich binding site for DB293. FIG. 2B is a graphical illustration of footprinting plots for the binding of DB293 to (open circles) the AT site 5′-AATTAA and (filled squares) the GC-rich site 5′-ACCATG. The relative band intensity R corresponds to the ratio Ic/Io where Ic is the intensity of the band at the ligand concentration c and Io is the intensity of the same band in the absence of DB293. The differential cleavage plots shown in FIG. 2C compare the susceptibility of the DNA to cutting by DNase I in the presence of (filled circles) 5 μM DB270 or (open squares) 1.5 μM DB293. Deviation of points towards the lettered sequence (negative values) corresponds to a ligand-protected site and deviation away (positive values) represents enhanced cleavage. The vertical scale is in units of ln(fa)–l(fc), where fa is the fractional cleavage at any bond in the presence of the drug and fc is the fractional cleavage of the same bond in the control. […] The rectangles below the sequence show the positions of (open box) the AT binding site and (filled box) the GC-rich site.

[4] = test system: hairpin duplex oligo2 (93–104 base sequence region of the 265 mer pBS restriction fragment); assay: Thermal melting (Tm) of hairpin oligo2; assay type: binding; conditions: oligo2 on titration with compound; 0.01 M MES, 0.001M EDTA
Method: In order to investigate the complexes of these compounds in more detail with GC rich sequences, a hairpin duplex model containing the 93–104 base sequence region from the 265 mer pBS restriction fragment was synthesized and is illustrated as oligo2 in FIG. 1. Oligo1 (also shown in FIG. 1) with the AATT sequence that has been used in the analysis of a large number of minor-groove agents provides a reference.
Thermal melting experiments were conducted with a Cary 4 spectrophotometer interfaced to a microcomputer. A thermistor fixed into a reference cuvette was used to monitor the temperature. The oligomers were added to 1 mL of buffer (0.01 M MES and 0.001M EDTA) in 1 cm path length reduced volume quartz cells, and the concentration was determined by measuring the absorbance at 260 nm. Experiments were generally conducted at a concentration of 2×10^−6 M for hairpin oligo2, and 3×10^−6 M for hairpin oligo2-1. Tm experiments for the complexes were conducted as a function of ratio.

[5] = test system: oligo2-2 hairpin duplex; conditions: SPR, two site model
Method: as §1, §2

N=C(N)c1ccc2nc(-c3ccc(-c4nc5ccc(C(=N)N)cc5[nH]4)o3)[nH]c2c1 [DB270, reference compound]
melting temperatures of complexes with oligo2-1 [1]: below the DB293 value | binding to oligo2-1 relative to binding to oligo1 ([2]; SPR): at least a factor of ten weaker | footprint in the 90–100 base region (GC-rich) [3]: negligible footprints | binding to sites containing GC base pairs, such as ATGA, ACGA, and ATGT [3]: not and do not bind strongly or footprint

N=C(N)c1ccc(-c2ccc(-c3nc4ccc(C(=N)N)cc4[nH]3)o2)cc1 [DB293]
increase in Tm [4]: ≤ 30 °C | binding to oligo2-2 compared with oligo2-1 [5]: Very similar results | K2 relative to K1 (times larger) ([2]; also relative to binding of DB270): over 25 times | macroscopic binding constant K1 (initial binding) ([2]; oligo2-1, two site model): 2.8×10^6 | macroscopic binding constant K2 (second site after the first site is filled) ([2]; oligo2-1, two site model): 7.3×10^7 | footprint in the 90–100 base region (GC-rich) [3]: very strong footprint | C50 (drug concentration required for half-maximal footprinting) at the ATGA site versus the neighboring ATTA site ([3]; ATGA site compared with ATTA site): significantly lower | binding to sites containing GC base pairs, such as ATGA, ACGA, and ATGT [3]: strongly binds
